Laboratory results from patent US9682060B2, “Small molecules that induce intrinsic pathway apoptosis” (The Board of Trustees of the University of Illinois, priority 2015, dated 2017).
Entries after “also recorded” stand apart in the source; their conditions may differ.

What was measured:
[1] = system: adherent cell lines (HOS, H1993, SK-MEL-5, MIA PaCa-2); assay: Adherent cell lines: cell death by AV/PI staining and immunoblots; assay type: cell-based, Human; details: HOS, H1993, SK-MEL-5, MIA PaCa-2, 10 μM
[2] = system: U-937 cells; assay: Cytochrome c release by immunoblot and flow cytometry; assay type: cell-based, Human; details: 10 μM
Experimental: (§1) Cytochrome c Release by Immunoblot.
(§2) U-937 cells (3×10^6 cells in 2 mL RPMI) or SKW 6.4 cells (5×10^6 cells in 2 mL RPMI) were treated with 10 μM Raptinal for 10, 20, 30, 45 or 60 minutes in a 12-well plate. Cells were centrifuged (1000×g. 2 min), washed with ice-cold PBS and resuspended in cold 200 μL digitonin permeabilization buffer (75 mM NaCl, 1 mM Sodium phosphate monobasic, 8 mM sodium phosphate dibasic, 250 mM sucrose, 190 μg/mL digitonin, protease cocktail inhibitor, pH 7.5) and placed on ice for 5 min. Cell permeability (>95%) was confirmed by trypan blue. The permeabilized cells were centrifuged (14000×g, 5 min) and 150 μL of supernatant (cytosolic fraction) was saved. The pellet (mitochondrial fraction) was washed in 200 μL digitonin permeabilization buffer and lysed in 25 μL RIPA lysis buffer. […]
(§3) Suspension cells (2.5×10^6 SKW 6.4 cells or 1.5×10^6 U-937 cells in 1 mL RPMI) were treated with 10 μM Raptinal in a 24 well plate for 10, 20, 30, 45 and 60 min. The cells were centrifuged (1000×g, 2 min), washed with cold PBS and resuspended in cold permeabilization buffer (PBS containing 50 μg/mL digitonin and 100 mM KCl) and placed on ice for 5 min after which >95% of cells were permeabilized as determined by trypan blue. […] The cells were pelleted and washed with PBS (3 mL) and resuspended in PBS (1 mL) and analyzed by flow cytometry. […]

[3] = system: SKW 6.4 cells; assay: as above; assay type: cell-based, Human; details: 10 μM
Experimental: as §1, §2, §3

[4] = system: MCF10A; assay: Raptinal toxicity in various cell lines, 24 hour IC50; assay type: cell-based; details: MCF-10A; MCF10A (Human Breast Tissue); 24 hour incubation; mean ± SD
[5] = system: HL-60 VCR; assay: as above; assay type: cell-based; details: HL60/VCR; HL-60 VCR (Human Leukemia Vincristine Resistant); 24 hour incubation; mean ± SD
Experimental: MTS Assay for Suspension Cells.
Serial dilutions of compound in 100% DMSO were added in triplicate (2 μL to each well) to empty wells of a 96-well plate. Suspension cells (HL-60, U-937, SKW 6.4, Jurkat W T, Jurkat CASP8^−/−, Jurkat FADD^−/−, Jurkat Bcl-2) cells in RPMI 1640 media were added to 96-well plates (198 μL containing 4×10^4 cells) and the cells incubated for 24 hours.

[6] = system: SKW 6.4 cells; assay: Immunoblotting of caspase activation; assay type: cell-based, Human; details: 10 μM
Experimental: U-937 cells (3×10^6 cells in 2 mL RPMI) or SKW 6.4 cells (5×10^6 cells in 2 mL RPMI) were treated with compound (1% final DMSO v/v) for the appropriate period of time. After centrifugation and washing with PBS, cells were lysed with RIPA lysis buffer containing protease cocktail inhibitor III (Calbiochem) and cell debris removed by centrifugation (16000×g 5 min). The lysate concentrations were normalized after determination of protein concentration by the Bradford assay and whole cell lysate (40-60 μg) was resolved by 4-20% gradient SDS-PAGE gel electrophoresis at 120 V for 70 min after which proteins were transferred onto PVDF membranes (60 V for 2 hours) and blocked in 5% BSA or fat-free milk in TBST (as per primary antibody manufacturer's instructions) overnight at 4° C. The membranes were blotted for molecules of interest with primary antibody (1:1000 in 5% BSA or milk in TBST) overnight at 4° C. The bound primary antibodies were detected using appropriate secondary HRP conjugated antibodies (1:5000 in TBST) for 1 hour at room temperature and visualized by ECL autoradiography or with an Image Quant LAS 4010. The membranes were stripped in acidic methanol, blocked and re-probed as necessary.

[7] = assay type: in vivo, C57BL/6 mice; details: mice; single-dose intravenous 15-60 mg/kg
Experimental: Pharmacokinetics and Toxicity Profiling in Mice.
All animal studies were performed with prior approval by the University of Illinois at Urbana-Champaign IACUC committee. Eight week old female C57BL/6 mice were used for all pharmacokinetic and toxicity experiments. […]. For toxicity assessment, Raptinal was administered intravenously as a single-dose injection across a dose range of 15-60 mg/kg, and mice were sacrificed 7 days post-injection for evidence of hematologic toxicity (n=3 mice/group).

[8] = system: caspase-3/-7; assay: Caspase activity assay in cell lysate (Ac-DEVD-AFC); assay type: cell-based; details: 10 μM
[9] = system: U-937 cells; assay: Mitochondrial permeability transition pore (MPTP) calcein-cobalt assay; assay type: cell-based, Human; details: calcein-cobalt quenching
Experimental: Mitochondrial Permeability Transition Pore (MPTP) Calcein-Cobalt Assay.
U-937 cells (1×10^6 cells/mL in HBSS) were loaded with calcein-AM (20 nM final concentration) for 45 minutes at 37° C. The cells were washed with HBSS and resuspended in RPMI and plated into a 24-well plate (1×10^6 cells in 1 mL). The cells were treated with Raptinal (10 μM) for 15, 30, 45, 60 and 90 minutes. Cobalt(II) chloride was added (10 μL of 80 mM stock in HBSS) to the cells 10 minutes prior to the end of the time points. The cells were pelleted and resuspended in HBSS (0.5 mL) and calcein fluorescence was measured by flow cytometry. As a positive control for MPTP, ionomycin and calcium were added to calcein-labeled cells in HBSS 10 minutes prior to analysis by flow cytometry.

## O=CC1(C2(C=O)c3ccccc3-c3ccccc32)c2ccccc2-c2ccccc21 [Raptinal, [9,9′]bifluorenyl-9,9′-dicarbaldehyde]
[1]; AV/PI
  speed of cell death induction versus 1541B and staurosporine: substantially faster than the other agents
[1]; immunoblots
  procaspase-3 activation and PARP-1 cleavage within 2 hours: the only agent capable of activating procaspase-3 and inducing subsequent PARP-1 cleavage within 2 hours
[2]
  time of earliest / partial cytochrome c release: 10 min
[3]
  time of earliest / partial cytochrome c release: 10 min
[4]
  IC50: 3000 ± 200 nM
[5]
  IC50: 1600 ± 500 nM
[6]
  time of activation of initiator caspase-9: 20 min
  time to complete cleavage of procaspase-9, procaspase-8 and procaspase-3: ≤ 45 min
[6]; one hour of exposure
  procaspase-3 activation (immunoblot): the only agent capable of inducing procaspase-3 activation
[7]
  tolerability: well tolerated
[8]
  induction of caspase-3/-7 activity compared to other apoptosis inducing agents: faster induction of caspase-3/-7 activity and higher peak levels
[9]
  mitochondrial permeability transition pore (MPTP) formation: does not induce; also recorded: did not undergo mitochondrial-permeability-transition-pore (MPTP) formation
